Where two headings read alike, the source gives them in different places.
Legend:
Laphygma exigua = assay: Laphygma test; format: in vivo
Procedure: (§1) Solvent: 3 parts by weight of acetone
(§2) Emulsifier: 1 part by weight of alkylaryl polyglycol ether
To produce a suitable preparation of active compound, 1 part by weight of the active compound was mixed with the stated amount of solvent and the stated amount of emulsifier and the concentrate was diluted with water to the desired concentration.
Cotton leaves (Gossypium hirsutum) were sprayed with the preparation of the active compound until dew-moist and were then infested with caterpillars of the owlet moth (Laphygma exigua).
After the specified periods of time, the destruction in % was determined.

Drosophila melanogaster = assay: Drosophila test; format: in vivo; settings: 24 h, after 1 day, read-out: Degree of destruction in % after 1 day; for mortality at 0.001 % strength: 0.001% by weight active compound; for mortality at 0.01 % strength: 0.01% by weight active compound
Procedure: Solvent: 3 parts by weight of dimethylformamide
as §2
To produce a suitable preparation of active compound, 1 part by weight of the active compound was mixed with the stated amount of solvent containing the stated amount of emulsifier, and the concentrate was diluted with water to the desired concentration.
1 cm^3 of the preparation of the active compound was applied with a pipette to a filter paper disc of 7 cm diameter. The wet disc was placed over the orifice of a glass vessel containing 50 vinegar flies (Drosophila melanogaster) and covered with a glass plate.
After the specified periods of time, the destruction was determined in %. 100% means that all the flies were killed; 0% means that no flies were killed.

Toxicity test/peroral = settings: in vivo, po; albino rat, peroral; evaluation after 7 days
Procedure: Test animal: Albino rat (Rattus norvegicus)
To produce a suitable preparation of active compound, 3 parts by weight of active compound were mixed with 2.8 parts by weight of highly-dispersed silica and 4.2 parts by weight of talc. Suspensions which contain, in 1 ml of liquid, the amount of active compound to be applied per 100 g of animal weight, were prepared from the above active compound concentrate, with a little added powdered vegetable gum, by grinding with water. Dosing was effected volumetrically after weighing the test animals. A steel knob-ended probe was used for oral administration. The evaluation was carried out in each case after the end of the above-mentioned time interval, calculated from the administration of the active compound.
The LD50 values (dose of active compound at which 50% of the treated animals were killed) were determined in the usual manner from the mortality figures of the doses, which were varied in geometrical progression.

insects and acarids = settings: in vivo; cited from earlier work
Lucilia cuprina = assay: Test with parasitic fly larvae; format: in vivo; settings: 24 hours, Lucilia cuprina res., read-out: Degree of destruction in %
Procedure: Solvent: 35 parts by weight of ethylene polyglycol monomethyl ether
35 parts by weight of nonylphenol polyglycol ether
To produce a suitable preparation of active compound, 30 parts by weight of the active substance in question were mixed with the stated amount of solvent which contained the abovementioned proportion of emulsifier and the concentrate thus obtained was diluted with water to the desired concentration.
About 20 fly larvae (Lucilia cuprina) were introduced into a test tube which contains approximately 2 cm^3 of horse muscle. 0.5 ml of the preparation of active compound was applied to this horse meat. After 24 hours, the degree of destruction in % was determined. 100% means that all larvae had been killed and 0% means that no larvae had been killed.

Myzus persicae = assay: Myzus test (long-term action after spraying); format: in vivo; settings: 0.05% active compound, Brassica oleracea
Procedure: as §1, §2
(§3) To produce a suitable preparation of active compound, 1 part by weight of the active compound was mixed with the stated amount of solvent containing the stated amount of emulsifier and the concentrate was diluted with water to the desired concentration.
(§4) Cabbage plants (Brassica oleracea), which were about 10-15 cm high, were sprayed with the preparation of the active compound until dripping wet.
After the specified periods of time, the plants were infested with aphids (Myzus persicae). After intervals of 3 days, the destruction in % was determined. 100% means that all aphids had been killed whereas 0% means that none of the aphids had been killed.

Phaedon cochleariae = assay: Phaedon larvae test (long-term action after spraying); format: in vivo; settings: 0.05% active compound, Brassica oleracea
Procedure: as §1, §2, §3, §4
After the specified periods of time, the plants were infested with mustard beetle larvae (Phaedon cochleariae). After intervals of 3 days, the destruction in % was determined. 100% means that all beetle larvae had been killed whereas 0% means that none of the beetle larvae had been killed.

[1] = 0.001% by weight active compound
[2] = 0.01% by weight active compound
[3] = 96 h, 4 days, read-out: % destruction after 4 days
[4] = 192 h, 8 days, read-out: % destruction after 8 days

**Q.** With `CCOC(=O)C=C(OP(=S)(OC)OC)c1ccc([N+](=O)[O-])cc1` [drawing 12, reference compound] as the compound, how does the “Degree of destruction in % after 3 days” value (Laphygma exigua; [1]) read?
**A.** The value was 0%.

**Q.** What about the “Degree of destruction in % after 3 days” value (Laphygma exigua; [2]) of the same compound?
**A.** The value was 100%.

**Q.** Which mortality at 0.001 % strength (Drosophila melanogaster) does the source give for `CCOC(=O)C=C(OP(=S)(OCC)OCC)c1cccc([N+](=O)[O-])c1` [drawing 9] here?
**A.** Its mortality at 0.001 % strength is 99%.

**Q.** What about the mortality at 0.01 % strength (Drosophila melanogaster) of the same compound?
**A.** Its mortality at 0.01 % strength is 100%.

**Q.** Which LD50 at 168 h (Toxicity test/peroral) does the source give for `CCCOP(=S)(OCC)OC(=CC(=O)OCC)c1cccc([N+](=O)[O-])c1` (stereo not drawn) here?
**A.** Its LD50 at 168 h is 50 to 100 mg/kg.

**Q.** Which LD50 at 168 h (Toxicity test/peroral) does the source give for `CCCSP(=S)(OCC)OC(=CC(=O)OCC)c1cccc([N+](=O)[O-])c1` (stereo not drawn) [drawing 27] here?
**A.** The LD50 at 168 h was 100 to 250 mg/kg.

**Q.** With `CCOC(=O)C=C(OP(=S)(OC)OC)c1cccc([N+](=O)[O-])c1` as the compound, how does the “Degree of destruction in % after 3 days” value (Laphygma exigua; [1]) read?
**A.** Its value is 85%.

**Q.** And the “Degree of destruction in % after 3 days” value (Laphygma exigua; [2])?
**A.** The value was 100%.

**Q.** Which results are given for `CCOC(=O)C=C(OP(=S)(OC)OC)c1ccc([N+](=O)[O-])cc1` [drawing 8, reference compound]?
**A.** mortality at 0.001 % strength (Drosophila melanogaster): 0%; mortality at 0.01 % strength (Drosophila melanogaster): 100%

**Q.** Which “Degree of destruction in % after 3 days” value (Laphygma exigua; [1]) does the source give for `CCOP(=S)(OCC)OC(=CC(=O)OC(C)C)c1cccc([N+](=O)[O-])c1` [drawing 19] here?
**A.** Its value is 100%.

**Q.** And the “Degree of destruction in % after 3 days” value (Laphygma exigua; [2])?
**A.** The value was 100%.

**Q.** Which “insecticidal and acaricidal properties” value (insects and acarids) does the source give for `CCOC(=O)C=C(OP(=S)(OCC)OCC)c1ccc([N+](=O)[O-])cc1` [Compound B, O,O-diethyl-O-[1-(4-nitrophenyl)-2-carbethoxyvinyl]-thionophosphoric acid ester] here?
**A.** Its value is “possess insecticidal and acaricidal properties”.

**Q.** For `CCOC(=O)C=C(OP(=S)(OCC)OCC)c1ccc([N+](=O)[O-])cc1` [drawing 31], which mortality at 10 ppm (Lucilia cuprina) is on record?
**A.** Its mortality at 10 ppm is > 50%.

**Q.** What about the mortality at 100 ppm (Lucilia cuprina) of the same compound?
**A.** Its mortality at 100 ppm is 100%.

**Q.** Which “insecticidal and acaricidal properties” value (insects and acarids) does the source give for `CCOC(=O)C=C(OP(=S)(OC)OC)c1ccc([N+](=O)[O-])cc1` [Compound A, O,O-dimethyl-O-[1-(4-nitrophenyl)-2-carbethoxyvinyl]-thionophosphoric acid ester] here?
**A.** The value was “possess insecticidal and acaricidal properties”.

**Q.** Which “Degree of destruction in % after 3 days” value (Laphygma exigua; [1]) does the source give for `CCOC(=O)C=C(OP(=S)(OCC)OCC)c1cccc([N+](=O)[O-])c1` [drawing 14] here?
**A.** Its value is 100%.

**Q.** And the “Degree of destruction in % after 3 days” value (Laphygma exigua; [2])?
**A.** The value was 100%.

**Q.** Which mortality at 0.05 % strength (Myzus persicae; [3]) does the source give for `CCOC(=O)C=C(OP(=S)(OCC)OCC)c1ccc([N+](=O)[O-])cc1` [drawing 23] here?
**A.** The mortality at 0.05 % strength was 50%.

**Q.** And the mortality at 0.05 % strength (Myzus persicae; [4])?
**A.** Its mortality at 0.05 % strength is 0%.

**Q.** Which LD50 at 168 h (Toxicity test/peroral) does the source give for `CCOC(=O)C=C(OP(=S)(OCC)c1ccccc1)c1cccc([N+](=O)[O-])c1` (stereo not drawn) here?
**A.** The LD50 at 168 h was 50 to 100 mg/kg.

**Q.** Which results are given for `CCOC(=O)C=C(OP(=S)(OCC)OCC)c1ccc([N+](=O)[O-])cc1` [drawing 20]?
**A.** mortality at 0.05 % strength (Phaedon cochleariae; [3]): 100%; mortality at 0.05 % strength (Phaedon cochleariae; [4]): 100%; mortality at 0.05 % strength (Phaedon cochleariae; 264 h, 11 days, read-out: % destruction after 11 days): 50%; mortality at 0.05 % strength (Phaedon cochleariae; 360 h, 15 days, read-out: % destruction after 15 days): 0%

**Q.** Which LD50 at 168 h (Toxicity test/peroral) does the source give for `CCOC(=O)C=C(OP(=S)(OCC)OCC)c1ccc([N+](=O)[O-])cc1` [drawing 26, reference compound] here?
**A.** Its LD50 at 168 h is 10 to 25 mg/kg.

**Q.** Which results are given for `CCOP(=S)(OCC)OC(=CC(=O)OC(C)C)c1cccc([N+](=O)[O-])c1` [drawing 10]?
**A.** mortality at 0.001 % strength (Drosophila melanogaster): 100%; mortality at 0.01 % strength (Drosophila melanogaster): 100%

**Q.** Which mortality at 10 ppm (Lucilia cuprina) does the source give for `CCCSP(=S)(OCC)OC(=CC(=O)OCC)c1cccc([N+](=O)[O-])c1` (stereo not drawn) [drawing 30] here?
**A.** The mortality at 10 ppm was 100%.

**Q.** What about the mortality at 30 ppm (Lucilia cuprina; 30 ppm) of the same compound?
**A.** Its mortality at 30 ppm is 100%.

**Q.** What about the mortality at 100 ppm (Lucilia cuprina) of the same compound?
**A.** Its mortality at 100 ppm is 100%.

**Q.** With `CCCOP(=S)(OCC)OC(=CC(=O)OC(C)C)c1cccc([N+](=O)[O-])c1` (stereo not drawn) as the compound, how does the mortality at 0.001 % strength (Drosophila melanogaster) read?
**A.** The mortality at 0.001 % strength was 98%.

**Q.** And the mortality at 0.01 % strength (Drosophila melanogaster)?
**A.** The mortality at 0.01 % strength was 100%.

— patent US4041158A, “O-alkyl-0-[1-(3-nitrophenyl)-2-carbalkoxy-vinyl ]-thiono(thiol)-phosphoric (phosphonic) acid esters” (priority 1974, dated 1977)
